Molecules are shown by their SMILES.

Experiment [1] relates to E. coli EPSPS glyphosate-resistant isolate, single amino acid substitution of an alanine for the glycine at position 96. To be noted: read-out: apparent Ki for glyphosate; alanine for glycine at position 96; cited from earlier work.
The test system of experiment [2] is native EPSPS from E. coli (wild type). To be noted: read-out: apparent Ki for glyphosate; cited from earlier work.
For experiment [3], the target named is T1, E. indica glypS EPSPS (Eleusine indica, naturally occurring glyphosate sensitive, wild type) (Eleusine indica, UniProt Q95AK0).
T1 construct: plant extract or E. coli SR481 extract
T1 sequence (Q95AK0 1-445): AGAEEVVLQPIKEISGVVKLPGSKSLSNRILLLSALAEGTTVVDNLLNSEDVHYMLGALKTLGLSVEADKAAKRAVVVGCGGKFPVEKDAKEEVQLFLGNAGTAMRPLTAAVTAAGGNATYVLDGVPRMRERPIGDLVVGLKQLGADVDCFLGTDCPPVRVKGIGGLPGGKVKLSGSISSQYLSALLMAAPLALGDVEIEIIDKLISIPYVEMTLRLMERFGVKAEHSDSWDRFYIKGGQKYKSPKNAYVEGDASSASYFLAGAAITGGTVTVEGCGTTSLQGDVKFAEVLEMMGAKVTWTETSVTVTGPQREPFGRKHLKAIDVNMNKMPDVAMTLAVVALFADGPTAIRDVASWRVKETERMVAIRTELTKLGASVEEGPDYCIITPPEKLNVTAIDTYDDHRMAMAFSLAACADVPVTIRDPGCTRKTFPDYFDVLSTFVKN
The experiment can be described thus: kinetic characterization of EPSP synthase (Table 4). It counts as biochemical. On the procedure: (§1) Final sample volumes are approximately 0.5 ml.

Experiment [4] addresses T2, Z. mays EPSPS variant glypR (Thr-Ile, Pro-Ser) (Zea mays, UniProt A0A1D6NVZ6, P168S/T164I).
T2 sequence (A0A1D6NVZ6 63-506 T164I/P168S limits assumed): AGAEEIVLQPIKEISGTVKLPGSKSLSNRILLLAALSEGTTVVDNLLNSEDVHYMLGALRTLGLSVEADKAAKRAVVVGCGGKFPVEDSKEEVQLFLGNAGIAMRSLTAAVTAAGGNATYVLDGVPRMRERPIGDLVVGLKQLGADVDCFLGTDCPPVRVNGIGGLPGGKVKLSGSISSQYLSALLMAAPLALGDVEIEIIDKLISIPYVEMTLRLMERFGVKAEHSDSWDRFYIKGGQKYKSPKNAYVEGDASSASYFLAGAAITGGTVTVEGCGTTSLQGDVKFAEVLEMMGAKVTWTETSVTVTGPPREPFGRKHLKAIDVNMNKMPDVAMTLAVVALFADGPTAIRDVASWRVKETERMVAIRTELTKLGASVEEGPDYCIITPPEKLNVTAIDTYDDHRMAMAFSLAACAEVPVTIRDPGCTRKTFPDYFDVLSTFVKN
Described as above. The settings on record: read-out: apparent Ki for glyphosate; with respect to PEP, saturating S3P. It counts as biochemical. On the procedure: as §1

The target of experiment [5] is T3, P. hybrida EPSPS variant glypR (Pro-Ser) (Petunia hybrida, UniProt P11043, P178S).
T3 sequence (P11043 73-516 P178S): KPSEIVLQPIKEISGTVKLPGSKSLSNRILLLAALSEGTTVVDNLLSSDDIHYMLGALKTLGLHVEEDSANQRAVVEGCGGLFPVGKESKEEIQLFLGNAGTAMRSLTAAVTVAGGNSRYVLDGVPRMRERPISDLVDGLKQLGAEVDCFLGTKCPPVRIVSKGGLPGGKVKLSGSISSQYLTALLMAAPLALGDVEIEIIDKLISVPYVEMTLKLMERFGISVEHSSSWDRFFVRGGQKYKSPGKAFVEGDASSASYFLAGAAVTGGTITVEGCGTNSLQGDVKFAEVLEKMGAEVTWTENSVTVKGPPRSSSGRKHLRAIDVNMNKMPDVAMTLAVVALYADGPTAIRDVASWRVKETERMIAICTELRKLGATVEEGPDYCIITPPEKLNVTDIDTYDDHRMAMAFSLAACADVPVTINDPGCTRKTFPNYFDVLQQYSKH
The description is as above. It counts as biochemical. On the procedure: as §1

Experiment [6] relates to EPSPS of the glyphosate sensitive E. indica biotype (wild type, plant crown extract). Put plainly: radiometric EPSP synthase assay, glyphosate inhibition, plant extracts of sensitive biotype. The format is biochemical, Eleusine indica. To be noted: read-out: I50 (glyphosate); 1 mM shikimate-3-phosphate, 0.5 mM PEP, pH 7.0, 25° C.
Protocol: Preparation of extracts and radiometric EPSP synthase assays are performed using methods adapted from published procedures (Padgette et al., J. Biol. Chem. 266:22364-22369 (1991). Crown regions are dissected from whole plants, pulverized under liquid nitrogen with a mortar and pestle, then stored at −80° C. prior to extraction. Homogenates are prepared from 0.5 g tissue per sample in 25 ml extraction buffer (100 mM TrisCl, 10% glycerol, 1 mM EDTA, 1 mM benzamidine, 1 mM dithiothreitol, 1 mM 4-(2-aminoethyl)-benzenesulfonyl floride HCl, 0.1 mM leupeptin, pH 7.4) at 4° C. using a model PT3000 Polytron homogenizer (Brinkman Instuments Inc., Westbury, N.Y.). Debris is removed by 0.2 μm filtration, then the resulting supernatant is concentrated and desalted using an Ultrafree-15 centrifugal filtration unit (cat.#UFV2-BGC-10, Millipore Corp., Bedford, Mass.). Final sample volumes are approximately 0.5 ml. Protein concentrations are determined spectrophotometrically using the Bio-Rad protein assay reagent (cat.#500-0006, Bio-Rad Laboratories, Hercules, Calif.). EPSPS specific activities are determined by assaying 10 μl extract at 25° C. for 5-15 min. […] Reactions are quenched with the addition of 50 μl 9:1 ethanol: 0.1 M acetic acid. […]
Experiment [7] deals with E. coli SR481 cells expressing E. indica EPSP synthase (tolerant vs sensitive biotype). Put plainly: growth of transgenic E. coli aroA- cells expressing E. indica EPSPS in the presence of glyphosate (FIG. 3). The format is cell-based. To be noted: M9 minimal media, 0.0, 0.5, 1.5 or 5.0 mM glyphosate, 0-48 hours, vs sensitive biotype enzyme. Here is the method:
The EPSP synthase mature protein-coding regions isolated from the glyphosate tolerant and glyphosate sensitive E. indica biotypes, can be directly compared for their ability to confer tolerance to glyphosate in transgenic hosts.
These sequences are employed in RT-PCR reactions to generate expression cassettes suitable for cloning into pMON45337 cut with the restriction enzymes Nde1 and EcoR1. RT-PCR reactions are performed with total RNAs extracted from frozen crown samples using the RNeasy Plant Mini Kit (cat.#74904, Qiagen Inc., Valencia, Calif.) per manufacturer's instructions. Oligo dT-primed first-strand cDNAs are prepared from 5 μg samples of total RNA using the Superscript Pre-Amplification System (cat.#18089-011, Life Technologies, Rockville, Md.) per manufacturer's instructions. Two μl of first-strand cDNA are then used to generate E. indica EPSP synthase expression cassettes via polymerase chain reaction. The oligonucleotides are added in 50 μl RT-PCR reactions at a final concentration of 0.4 μM. PCR amplifications are then performed using the Expand High Fidelity PCR System (cat.#1 732 641, Roche Molecular Biochemicals, Indianapolis, Ind.) per manufacturer's instructions, using a thermal profile of 94° C. for 30 seconds, then 57° C. for 2 minutes, followed by 75° C. for 3 minutes, for a total of 35 cycles. […]

On to `O=C(O)CNCP(=O)(O)O` [glyphosate, N-phosphonomethylglycine], for which the Ki is 4000 µM in experiment [1]; 0.5 µM in experiment [2]; 0.05 µM in experiment [3]; 60 µM in experiment [4]; 3 µM in experiment [5]. Also, the IC50 in experiment [6] is about 3 µM. For the same compound, the “increase in tolerance to glyphosate due to EPSP synthase from tolerant E. indica biotype” value in experiment [7] was “approximately three-fold increase in tolerance to glyphosate”.

Source of the values: patent US6803501B2 (Monsanto Technology, LLC, priority 2000, dated 2004).
